Values of other authors, collected in patent US11220528B2, “Compositions and methods for treating pulmonary hypertension” (Marshall University Research Corporation, priority 2017, dated 2022).

Conditions: background statement

- half-life: 3 to 5 min
Compound: CCCCC[C@H](O)/C=C/[C@@H]1[C@H]2C/C(=C/CCCC(=O)O)O[C@H]2C[C@H]1O [Epoprostenol]
